“And” between values parts separate entries of the source, which are not always exact repeats. Equal values may be shown once.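 A five-concentration, 48-hour dose response in 96-well plates underlies each endpoint, interpolated linearly between surrounding concentrations. GI50 = concentration required for 50% inhibition of growth. TGI: total growth inhibition.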

Test systems include ACHN renal; KM12 colon; HS 578T breast; IGROV1 ovarian; CCRF-CEM leukemia; CAKI-1 renal; TK-10 renal; SW-620 colon; BT-549 breast; MDA-MB-231 breast.
What all share (test): NCI tumour cell line growth inhibition, 48 h

Turning to `Cc1ccc(C2=NN(c3ccc(S(N)(=O)=O)cc3)C(c3cn(-c4ccccc4)nc3-c3ccccc3)C2)cc1` (stereo not given), the GI50 with ACHN renal was 9510 nM; in the assay with KM12 colon, 4270 nM; with HS 578T breast, 18300 nM; in the assay with IGROV1 ovarian it was 28300 nM; in the assay on CCRF-CEM leukemia, greater than 100000 nM; in the assay with CAKI-1 renal it was 6170 nM. Besides, the GI50 was 71200 nM in the assay on TK-10 renal, 9820 nM in the assay with SW-620 colon, 3850 nM in the assay with BT-549 breast and 9410 nM with MDA-MB-231 breast. The TGI in the assay with ACHN renal, in the assay with KM12 colon, in the assay on HS 578T breast, with IGROV1 ovarian, in the assay with CCRF-CEM leukemia and in the assay with CAKI-1 renal was greater than 100000 nM each time. For the same molecule, the TGI with TK-10 renal was greater than 100000 nM; in the assay on SW-620 colon, greater than 100000 nM; in the assay on BT-549 breast, 61600 nM; with MDA-MB-231 breast it was 84400 nM.
As for `O=C(NCCCCCCNC(=O)OCc1ccc2c(Cl)cc(Cl)c(O)c2n1)OCc1ccc2c(Cl)cc(Cl)c(O)c2n1`, the GI50 is 353 nM with ACHN renal; 1340 nM with KM12 colon; 1460 nM in the assay on HS 578T breast; 570 nM in the assay with IGROV1 ovarian; 311 nM in the assay with CCRF-CEM leukemia; 412 nM in the assay with CAKI-1 renal. The GI50 is 1180 nM in the assay with TK-10 renal, 303 nM with SW-620 colon, 748 nM in the assay with BT-549 breast and 1170 nM in the assay with MDA-MB-231 breast. The TGI is 1320 nM in the assay with ACHN renal; 2950 nM with KM12 colon; 5680 nM in the assay on HS 578T breast; 1780 nM in the assay on IGROV1 ovarian; 1690 nM in the assay with CAKI-1 renal; 2450 nM in the assay with TK-10 renal. Also, the results for the TGI in the assay on SW-620 colon, in the assay on BT-549 breast and with MDA-MB-231 breast were 984 nM, 2170 nM and 2490 nM, respectively.
As for `CCN(CC)CC[n+]1cc2cc(OC)c(OC)cc2c2ccc3cc4c(cc3c21)OCO4`, the GI50 in the assay with ACHN renal was 1250 nM; in the assay with KM12 colon, 515 nM; in the assay on HS 578T breast it was 604 nM; in the assay on IGROV1 ovarian, 649 nM; with CCRF-CEM leukemia, 325 nM; in the assay with CAKI-1 renal, 1990 nM. Besides, the GI50 was 1810 nM in the assay with TK-10 renal, 442 nM in the assay on SW-620 colon, 1110 nM with BT-549 breast and 709 nM with MDA-MB-231 breast. The TGI is 4070 nM with ACHN renal; 2460 nM with KM12 colon; 5540 nM in the assay with HS 578T breast; 2670 nM with IGROV1 ovarian; 20100 nM with CCRF-CEM leukemia; 14300 nM in the assay with CAKI-1 renal. Moreover, the TGI in the assay with TK-10 renal worked out at 5280 nM; with SW-620 colon, 2360 nM; with BT-549 breast, 2880 nM; with MDA-MB-231 breast it was 2710 nM.
For `CCCCCCNCCCNc1c2ccccc2nc2cccc([N+](=O)[O-])c12`, the GI50 is 15.1 nM in the assay on ACHN renal; 25.2 nM in the assay with IGROV1 ovarian; 27.7 nM with CCRF-CEM leukemia; 70.5 nM in the assay on TK-10 renal; 212 nM with BT-549 breast; 15.1 nM in the assay with MDA-MB-231 breast. Moreover, the TGI in the assay with ACHN renal is 44.6 nM and 85.8 nM; in the assay on KM12 colon, 35.2 nM and 33.5 nM; with HS 578T breast it was 210 nM and 434 nM; in the assay with IGROV1 ovarian, 71.3 nM and 186 nM; in the assay on CCRF-CEM leukemia it was 170 nM and 182 nM; with CAKI-1 renal, 271 nM. The TGI in the assay on TK-10 renal was 787 nM and 512 nM; in the assay with SW-620 colon it was 115 nM and 734 nM; in the assay on BT-549 breast, 271 nM and 448 nM; with MDA-MB-231 breast, 93.3 nM and 221 nM.
As for `CNC(=O)CN1CCC(Oc2cc3c(Nc4cccc(Cl)c4F)ncnc3cc2OC)CC1`, the GI50 in the assay on ACHN renal is < 22.4 nM and 56.1 nM; in the assay with KM12 colon, 17300 nM and > 5890 nM; in the assay with HS 578T breast it was 3350 nM and 2960 nM; with IGROV1 ovarian, 303 nM and 84 nM; in the assay with CCRF-CEM leukemia it was 24600 nM and > 5760 nM; in the assay on CAKI-1 renal, 216 nM and 1110 nM. Also, the GI50 in the assay on TK-10 renal is 23.7 nM and 7.44 nM; in the assay on SW-620 colon, 15600 nM and > 6560 nM; in the assay on BT-549 breast, 16200 nM and > 10000 nM; in the assay with MDA-MB-231 breast it was 5900 nM and 4180 nM. Moreover, the TGI in the assay with ACHN renal is 25600 nM and > 10000 nM; with KM12 colon it was 32400 nM and > 10000 nM; in the assay on HS 578T breast, 21200 nM and > 10000 nM; in the assay with IGROV1 ovarian it was 5370 nM and 4300 nM; with CCRF-CEM leukemia, 81000 nM and > 10000 nM; in the assay on CAKI-1 renal it was 10400 nM and > 10000 nM. The TGI with TK-10 renal is 14800 nM and > 10000 nM; in the assay on SW-620 colon, 32900 nM and > 10000 nM; in the assay with BT-549 breast it was 38900 nM and > 10000 nM; in the assay on MDA-MB-231 breast it was 20700 nM and > 10000 nM.
Turning to `Nc1c2ccccc2nc2ccccc12` (tested in a mixture with another compound), the GI50 in the assay on ACHN renal is 779 nM; in the assay with KM12 colon it was 2220 nM; in the assay on HS 578T breast it was 3060 nM; in the assay on IGROV1 ovarian it was 2720 nM; with CCRF-CEM leukemia, 2720 nM; in the assay with CAKI-1 renal, 1830 nM. The GI50 with TK-10 renal was 1970 nM; in the assay on SW-620 colon it was 1440 nM; in the assay with BT-549 breast, 4420 nM; in the assay on MDA-MB-231 breast it was 1500 nM. The TGI with ACHN renal turned out to be 8720 nM; with KM12 colon, 6770 nM; in the assay with HS 578T breast, 17400 nM; in the assay on IGROV1 ovarian, 7890 nM; with CCRF-CEM leukemia, 77300 nM; in the assay on CAKI-1 renal, 5110 nM. The TGI with TK-10 renal worked out at 5340 nM; with SW-620 colon, 10100 nM; with BT-549 breast it was 17600 nM; with MDA-MB-231 breast it was 5840 nM.
For `C[C@@H]1OCC2(CCN(c3cnc(Sc4ccnc(N)c4Cl)c(N)n3)CC2)[C@@H]1N`, the GI50 in the assay on ACHN renal is 4710 nM; in the assay on KM12 colon it was 5460 nM; in the assay on HS 578T breast it was 61800 nM; in the assay with IGROV1 ovarian it was 801 nM; with CCRF-CEM leukemia, greater than 95600 nM; in the assay on CAKI-1 renal it was 3690 nM. The GI50 in the assay with TK-10 renal was 253 nM; in the assay with SW-620 colon, 88700 nM; in the assay on BT-549 breast, 34600 nM; in the assay on MDA-MB-231 breast it was greater than 100000 nM. The TGI in the assay on ACHN renal, in the assay with KM12 colon, with HS 578T breast, in the assay on IGROV1 ovarian, in the assay on CCRF-CEM leukemia and with CAKI-1 renal was greater than 100000 nM throughout. Moreover, the TGI with TK-10 renal, in the assay on SW-620 colon, in the assay on BT-549 breast and in the assay with MDA-MB-231 breast was greater than 100000 nM each time.
On to `Nc1ncnc2c1ncn2C1OC(COC2C(CO)OC(OC(C(=O)O)C(O)C(OP(=O)(O)O)C(O)C(=O)O)C(O)C2O)C(O)C1O` (stereo not given), for which the TGI is greater than 100000 nM in the assay with ACHN renal; greater than 100000 nM in the assay with KM12 colon; 91200 nM in the assay with HS 578T breast; greater than 100000 nM with IGROV1 ovarian; greater than 100000 nM in the assay on CCRF-CEM leukemia; greater than 100000 nM with CAKI-1 renal. Also, the TGI in the assay on TK-10 renal, with SW-620 colon, with BT-549 breast and in the assay with MDA-MB-231 breast was greater than 100000 nM each time.

The values are drawn from PubChem BioAssay (NCI).
